Measurements published in ChEMBL document CHEMBL2074061, “Inhibition of transport across the hepatocyte canalicular membrane by the antibiotic fusidate” (Biochem Pharmacol, 2002).
pKi: −log10 of the molar value.

How the values were obtained:
Bile salt export pump = biological target: T1, Bile salt export pump (Rattus norvegicus, UniProt O70127); assay: TP_TRANSPORTER: inhibition of Taurocholate uptake in canalicular membrane vesicles of rat liver; format: functional, cell membranes, Canalicular membrane vesicle
T1 sequence (O70127 whole entry): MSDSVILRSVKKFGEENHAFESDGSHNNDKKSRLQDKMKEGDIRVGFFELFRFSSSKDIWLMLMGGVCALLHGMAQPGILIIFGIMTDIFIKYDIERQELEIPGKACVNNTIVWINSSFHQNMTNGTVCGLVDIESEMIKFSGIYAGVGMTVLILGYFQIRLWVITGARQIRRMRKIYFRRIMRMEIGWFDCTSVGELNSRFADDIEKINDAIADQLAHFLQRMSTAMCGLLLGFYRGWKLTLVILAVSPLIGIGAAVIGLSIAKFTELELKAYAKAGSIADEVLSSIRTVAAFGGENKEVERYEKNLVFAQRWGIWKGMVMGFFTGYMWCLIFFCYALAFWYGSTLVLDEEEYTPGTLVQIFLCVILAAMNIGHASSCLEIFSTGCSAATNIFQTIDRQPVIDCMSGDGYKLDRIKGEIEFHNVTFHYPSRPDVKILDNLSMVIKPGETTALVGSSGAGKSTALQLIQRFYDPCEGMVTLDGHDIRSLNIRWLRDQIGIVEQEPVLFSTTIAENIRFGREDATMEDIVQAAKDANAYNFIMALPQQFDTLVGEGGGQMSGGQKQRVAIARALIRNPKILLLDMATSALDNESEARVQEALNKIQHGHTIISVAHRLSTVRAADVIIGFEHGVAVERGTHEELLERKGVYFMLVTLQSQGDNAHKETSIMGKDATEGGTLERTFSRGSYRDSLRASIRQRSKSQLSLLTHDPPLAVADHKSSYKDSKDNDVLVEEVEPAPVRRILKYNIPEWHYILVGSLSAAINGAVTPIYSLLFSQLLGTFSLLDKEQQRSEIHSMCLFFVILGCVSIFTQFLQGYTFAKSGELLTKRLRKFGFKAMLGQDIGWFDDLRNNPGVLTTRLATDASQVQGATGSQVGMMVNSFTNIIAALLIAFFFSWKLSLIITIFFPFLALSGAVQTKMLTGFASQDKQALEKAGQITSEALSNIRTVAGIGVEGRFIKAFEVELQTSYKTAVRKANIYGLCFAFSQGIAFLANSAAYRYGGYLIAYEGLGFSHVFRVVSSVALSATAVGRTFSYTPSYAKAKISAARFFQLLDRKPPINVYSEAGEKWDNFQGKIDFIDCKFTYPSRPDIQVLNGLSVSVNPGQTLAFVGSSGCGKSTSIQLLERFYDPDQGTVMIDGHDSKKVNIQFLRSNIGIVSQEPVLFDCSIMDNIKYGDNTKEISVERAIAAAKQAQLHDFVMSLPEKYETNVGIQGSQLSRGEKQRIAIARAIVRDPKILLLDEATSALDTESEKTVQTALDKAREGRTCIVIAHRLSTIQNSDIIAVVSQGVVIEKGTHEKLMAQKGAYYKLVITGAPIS

[1] = biological target: T2, ATP-binding cassette sub-family C member 2 (Rattus norvegicus, UniProt Q63120); assay: TP_TRANSPORTER: inhibition of LTC4 uptake in Mrp2-expressing HEK cells; format: functional, cell-based, HEK293
[2] = biological target: T2, ATP-binding cassette sub-family C member 2; assay: TP_TRANSPORTER: inhibition of E217betaG uptake in canalicular membrane vesicles of rat liver; format: functional, cell membranes, Canalicular membrane vesicle
[3] = biological target: T2, ATP-binding cassette sub-family C member 2; assay: TP_TRANSPORTER: inhibition of LTC4 uptake in canalicular membrane vesicles of rat liver; format: functional, cell membranes, Canalicular membrane vesicle

T2 sequence (Q63120 whole entry): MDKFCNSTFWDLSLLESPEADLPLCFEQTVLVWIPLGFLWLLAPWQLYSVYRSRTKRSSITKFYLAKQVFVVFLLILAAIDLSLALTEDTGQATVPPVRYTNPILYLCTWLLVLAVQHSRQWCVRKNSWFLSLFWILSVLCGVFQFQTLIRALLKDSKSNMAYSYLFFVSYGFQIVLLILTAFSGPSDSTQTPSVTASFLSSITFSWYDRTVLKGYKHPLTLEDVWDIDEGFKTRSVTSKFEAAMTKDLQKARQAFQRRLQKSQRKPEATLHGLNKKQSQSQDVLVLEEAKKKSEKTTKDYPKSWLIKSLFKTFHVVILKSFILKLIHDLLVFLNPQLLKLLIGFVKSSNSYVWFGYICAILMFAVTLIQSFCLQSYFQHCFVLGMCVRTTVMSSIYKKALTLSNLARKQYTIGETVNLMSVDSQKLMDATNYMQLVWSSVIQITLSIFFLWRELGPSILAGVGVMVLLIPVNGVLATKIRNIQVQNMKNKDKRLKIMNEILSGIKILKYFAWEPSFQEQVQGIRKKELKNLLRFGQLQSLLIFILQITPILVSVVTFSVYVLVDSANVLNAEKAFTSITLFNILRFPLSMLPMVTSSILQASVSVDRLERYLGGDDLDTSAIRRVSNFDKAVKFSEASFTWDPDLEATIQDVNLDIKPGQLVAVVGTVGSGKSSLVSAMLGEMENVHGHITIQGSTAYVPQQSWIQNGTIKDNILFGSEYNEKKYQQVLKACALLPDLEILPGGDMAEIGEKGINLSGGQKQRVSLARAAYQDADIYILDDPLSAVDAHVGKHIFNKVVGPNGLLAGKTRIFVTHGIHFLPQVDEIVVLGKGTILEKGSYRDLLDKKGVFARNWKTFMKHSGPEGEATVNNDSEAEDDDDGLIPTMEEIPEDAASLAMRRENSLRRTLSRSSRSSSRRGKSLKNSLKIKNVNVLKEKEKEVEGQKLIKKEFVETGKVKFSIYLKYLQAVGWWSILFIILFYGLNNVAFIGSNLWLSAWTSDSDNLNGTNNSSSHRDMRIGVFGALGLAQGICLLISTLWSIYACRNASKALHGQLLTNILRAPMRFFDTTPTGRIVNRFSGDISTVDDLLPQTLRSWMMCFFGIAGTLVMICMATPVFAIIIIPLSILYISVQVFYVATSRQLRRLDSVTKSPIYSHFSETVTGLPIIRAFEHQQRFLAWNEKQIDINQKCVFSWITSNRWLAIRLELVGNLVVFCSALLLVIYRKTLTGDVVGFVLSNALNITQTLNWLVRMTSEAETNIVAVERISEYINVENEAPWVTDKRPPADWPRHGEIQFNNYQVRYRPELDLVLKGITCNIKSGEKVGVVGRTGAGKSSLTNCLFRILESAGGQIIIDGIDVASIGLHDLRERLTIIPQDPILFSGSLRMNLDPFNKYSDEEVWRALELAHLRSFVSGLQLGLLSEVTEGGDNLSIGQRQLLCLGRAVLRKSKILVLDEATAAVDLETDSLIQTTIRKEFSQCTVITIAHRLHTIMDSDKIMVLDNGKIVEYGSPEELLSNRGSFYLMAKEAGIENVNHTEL

CC(=O)O[C@H]1C[C@@]2(C)[C@@H](C[C@@H](O)[C@H]3[C@@]4(C)CC[C@@H](O)[C@@H](C)[C@@H]4CC[C@@]32C)/C1=C(\CCC=C(C)C)C(=O)O [FUSIDIC ACID] was tested, and the pKi (Bile salt export pump) was 5.66, the pKi [1] was 4.89 and the pKi [2] was 5.12. For the same compound, the pKi [3] was 5.26.
